Patent US20260325605A1, “INHIBITORS” (Zealand Pharma A/S, priority 2022, published 2026)

Tests used:
[1] = system: KLH-induced DTH ear swelling in rats; assay: Example 8: Long-lasting effect in KLH-induced delayed type hypersensitivity (DTH) model; type: in vivo, rat (Lewis)
Experimental: The animal care facility employed is accredited by AAALAC. Female Lewis rats, weighing 180±20 g at delivery were used for this study. Following arrival in the animal facility, all animals were subjected to a general health evaluation. An acclimation period of 1 day was allowed before the beginning of the study.
The animal room was maintained at a controlled temperature of 20-24° C. and a relative humidity of 30-70%. A controlled lighting system assured 12 hours light, 12 hours dark per day to the animals. Adequate ventilation of 15 air changes per hour was maintained.
This study was performed to investigate the length of effect of a Kv1.3 inhibitor (peptide 100) on ear inflammation in the KLH-induced DTH model in rats.
(§1) Healthy male Lewis rats aged 8-9 weeks were immunized on day 0 with 200 μL keyhole limpet hemocyanin (KLH) (from Sigma, cat.no. H7017) (4 mg/mL) emulsified in complete Freund's adjuvant (CFA) (Difco, cat.no. 263810) subcutaneously (SC) at the base of the tail.
(§2) To elicit a KLH-specific T cell-mediated local inflammation, rats were challenged intradermally at indicated timepoints (days 7, 9, 11 or 13 post-immunisation) with 40 μL KLH/NaCl 0.9% (2 mg/mL) in the left ear. Ear edemas were measured after 24-48 hrs and the right ear that was left untreated served as control. A schematic overview of the protocol is depicted in FIG. 1.
The ability of Kv1.3 inhibitor treatment to reduce the DTH ear swelling response was investigated by comparing the response in rats (n=8/group) treated with vehicle to that of rats treated with peptide 100. Vehicle or peptide 100 dissolved in vehicle was administered SC (2 mL/kg) on day 6. The test dose of Kv1.3 inhibitor was 300 nmol/kg. Test vehicle was 10 mM phosphate, 0.8% w/v NaCl, 0.05% w/v polysorbate20, pH 6. Cyclosporine A (CsA) was included as positive study control.
As readout of efficacy, the thickness of the induced ear 24 hrs and 48 hrs after respective ear challenge was measured and compared to vehicle control. Ear thickness 24 hrs after challenge is shown in Table 10 and FIG. 2 and ear thickness 48 hrs after challenge is shown in Table 11 and FIG. 3.

Kv1.6 = target: T1, Kv1.6 (Homo sapiens, UniProt P17658); assay: Patch clamp assay (QPatch), Kv1.6; type: cell-based
T1 construct: expressed in transfected cells

Kv1.2 = target: T2, Kv1.2 (Homo sapiens, UniProt P16389); assay: Patch clamp assay (QPatch), Kv1.2; type: cell-based
T2 construct: expressed in transfected cells
Experimental: (§3) Selectivity of Kv1.3 inhibitor peptides for Kv1.3 over other potassium ion channels (Kv1.1, Kv1.2 and Kv1.6) was determined using patch clamp assay.
(§4) Chinese Hamster Ovary (CHO) cell lines stably expressing exogenous human α-subunits of each potassium ion channel were grown and passaged under standard culture conditions.
(§5) The automated, chip-based planar patch clamp device QPatch® was used to quantitate the ionic currents. All recordings were made in the conventional whole-cell configuration after establishment of gigaohm seals. […] During experiments 0.1% (v/v) BSA was included as a vehicle in all external recording solutions. Currents were elicited from a holding potential of −80 mV using a voltage protocol, which shifted the voltage to 30 mV for 500 ms every 15 s.
(§6) Concentration-response relationships were established by cumulatively applying seven escalating concentrations of test sample to an individual cell with a recording period of 2 min per compound application.
(§7) The efficacy was determined as the mean charge for the last three sweeps at the end of each concentration application period from the cursor positions. The percent inhibition for each test dose application period was calculated as the reduction in mean cursor value (charge) relative to the cursor value measured at the end of the vehicle period and used to calculate the IC50 from the concentration response curve.

Kv1.1 = target: T3, Kv1.1 (Homo sapiens, UniProt Q09470); assay: Patch clamp assay (QPatch), Kv1.1; type: cell-based
T3 construct: expressed in transfected cells
Experimental: as §3, §4, §5, §6, §7

[2] = system: KLH-induced DTH ear swelling in rats; assay: Example 10: Maximal effective dose in KLH-induced DTH model; type: in vivo, rat (Lewis)
Experimental: as §1
as §2, with “1. […]” for “1.”
This study was conducted as described in example 8 with the difference that the rats were only challenged intradermally at days 7 or 11 post-immunisation (i.e. day 1 and day 5 after treatment) with 40 μL KLH/NaCl 0.9% (2 mg/mL) in the left ear. A schematic overview of the protocol is depicted in FIG. 5.
The doses of Kv1.3 inhibitor treatment able to reduce the DTH ear swelling response was investigated by comparing the response in rats (n=8/group) treated with vehicle to that of rats treated with different doses of peptide 100. Vehicle or peptide 100 dissolved in vehicle was administered SC (2 mL/kg) on day 6 post-immunisation. The test dose of Kv1.3 inhibitor was 10, 100, 300 or 700 nmol/kg. Test vehicle was 10 mM phosphate, 0.8% w/v NaCl, 0.05% w/v polysorbate20, pH 6.
As readout of efficacy, the thickness of the induced ear 24 hrs and 48 hrs after respective ear challenge was measured and compared to vehicle control. Ear thickness 24 hrs after challenge is shown in Table 13 and FIG. 6 and ear thickness 48 hrs after challenge is shown in Table 14 and FIG. 7.

T2 sequence (P16389 whole entry): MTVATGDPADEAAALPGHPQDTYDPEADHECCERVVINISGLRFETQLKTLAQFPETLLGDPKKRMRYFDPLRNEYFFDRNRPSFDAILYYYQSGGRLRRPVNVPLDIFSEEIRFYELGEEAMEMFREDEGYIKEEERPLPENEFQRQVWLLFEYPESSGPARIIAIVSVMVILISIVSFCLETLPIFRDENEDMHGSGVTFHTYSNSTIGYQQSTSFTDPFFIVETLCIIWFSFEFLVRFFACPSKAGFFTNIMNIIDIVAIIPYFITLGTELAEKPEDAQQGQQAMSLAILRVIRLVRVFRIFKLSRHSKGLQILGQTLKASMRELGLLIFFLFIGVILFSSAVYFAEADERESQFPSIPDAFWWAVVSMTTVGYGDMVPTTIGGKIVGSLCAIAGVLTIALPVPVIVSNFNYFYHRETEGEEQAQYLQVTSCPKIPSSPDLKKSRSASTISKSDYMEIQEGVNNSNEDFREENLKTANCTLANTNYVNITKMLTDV
T3 sequence (Q09470 whole entry): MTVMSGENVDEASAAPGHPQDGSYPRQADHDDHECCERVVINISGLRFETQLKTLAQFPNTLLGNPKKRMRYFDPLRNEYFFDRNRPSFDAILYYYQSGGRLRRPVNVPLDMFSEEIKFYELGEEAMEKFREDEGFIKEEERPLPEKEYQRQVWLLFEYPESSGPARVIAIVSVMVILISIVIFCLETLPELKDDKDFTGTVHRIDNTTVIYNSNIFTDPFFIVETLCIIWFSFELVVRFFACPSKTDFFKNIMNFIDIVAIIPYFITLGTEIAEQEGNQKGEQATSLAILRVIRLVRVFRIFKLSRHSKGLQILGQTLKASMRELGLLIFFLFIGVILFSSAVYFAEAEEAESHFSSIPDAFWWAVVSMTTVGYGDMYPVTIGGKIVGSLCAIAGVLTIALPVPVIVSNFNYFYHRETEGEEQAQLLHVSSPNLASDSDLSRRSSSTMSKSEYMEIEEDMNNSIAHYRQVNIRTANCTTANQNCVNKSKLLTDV
T1 sequence (P17658 whole entry): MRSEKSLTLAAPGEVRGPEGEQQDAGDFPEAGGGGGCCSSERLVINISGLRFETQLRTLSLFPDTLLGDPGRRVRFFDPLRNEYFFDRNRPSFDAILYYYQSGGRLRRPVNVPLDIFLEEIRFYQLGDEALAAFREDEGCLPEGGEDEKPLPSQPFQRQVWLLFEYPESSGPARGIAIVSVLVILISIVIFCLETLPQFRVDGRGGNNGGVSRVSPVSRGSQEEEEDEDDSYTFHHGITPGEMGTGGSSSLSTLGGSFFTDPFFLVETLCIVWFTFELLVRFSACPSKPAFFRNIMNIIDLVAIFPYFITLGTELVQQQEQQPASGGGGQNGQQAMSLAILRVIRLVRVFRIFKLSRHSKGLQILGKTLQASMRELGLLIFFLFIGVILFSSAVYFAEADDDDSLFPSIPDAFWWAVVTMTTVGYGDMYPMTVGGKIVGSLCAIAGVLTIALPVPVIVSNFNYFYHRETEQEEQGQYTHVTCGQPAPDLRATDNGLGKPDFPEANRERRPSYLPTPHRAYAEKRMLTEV

H-P[Nle]E[Nle]RC(1)SASVEC(2)KQKC(3)LAAIGSIFGKC(1)[Nle]NKKC(2)KC(3)YPR-OH [Peptide 100]
effect on KLH-induced ear swelling / inflammation ([1]; 300 nmol/kg on day 6, challenges on days 7, 9 and 11, in words): reduced KLH-induced ear swelling after challenges on days 7, 9 and 11
Mean ear thickness of KLH-induced ear ([1]; 300 nmol/kg s.c. day 6, challenge day 7, 24 hrs post-challenge (2 days post-treatment), vehicle 0.796, p<0.0001): 0.676±0.017 mm
Mean ear thickness of KLH-induced ear ([1]; 300 nmol/kg s.c. day 6, challenge day 7, 48 hrs post-challenge (3 days post-treatment), vehicle 0.733, p<0.0001): 0.623±0.015 mm
Mean ear thickness of KLH-induced ear ([1]; 300 nmol/kg s.c. day 6, challenge day 9, 24 hrs post-challenge (4 days post-treatment), vehicle 0.761, p=0.0011): 0.689±0.031 mm
Mean ear thickness of KLH-induced ear ([1]; 300 nmol/kg s.c. day 6, challenge day 9, 48 hrs post-challenge (5 days post-treatment), vehicle 0.729, p=0.0002): 0.659±0.034 mm
Mean ear thickness of KLH-induced ear ([1]; 300 nmol/kg s.c. day 6, challenge day 11, 24 hrs post-challenge (6 days post-treatment), vehicle 0.784, p<0.0001): 0.681±0.023 mm
Mean ear thickness of KLH-induced ear ([1]; 300 nmol/kg s.c. day 6, challenge day 11, 48 hrs post-challenge (7 days post-treatment), vehicle 0.746, p<0.0001): 0.653±0.013 mm
Mean ear thickness of KLH-induced ear ([1]; 300 nmol/kg s.c. day 6, challenge day 13, 24 hrs post-challenge (8 days post-treatment), vehicle 0.767, p=0.0696, not significant): 0.729±0.038 mm
Mean ear thickness of KLH-induced ear ([1]; 300 nmol/kg s.c. day 6, challenge day 13, 48 hrs post-challenge (9 days post-treatment), vehicle 0.720, p=0.2256, not significant): 0.699±0.028 mm
Mean ear thickness of KLH-induced ear ([1]; measured 48 hrs post-challenge, day 3 post-treatment, 300 nmol/kg SC): 0.623 mm
Mean ear thickness of KLH-induced ear ([1]; measured 48 hrs post-challenge, day 5 post-treatment, 300 nmol/kg SC): 0.659 mm
Mean ear thickness of KLH-induced ear ([1]; measured 48 hrs post-challenge, day 7 post-treatment, 300 nmol/kg SC): 0.653 mm
Mean ear thickness of KLH-induced ear ([1]; measured 48 hrs post-challenge, day 9 post-treatment, 300 nmol/kg SC): 0.699 mm
IC50 (Kv1.6; QPatch, CHO cells stably expressing human Kv1.6, read-out: Potency IC50, Kv1.6): > 3 µM
Selectivity Kv1.6/Kv1.3 (Kv1.6; ratio of IC50 Kv1.6/Kv1.3): >9100
IC50 (Kv1.2; QPatch, CHO cells stably expressing human Kv1.2, read-out: Potency IC50, Kv1.2): 1.12 µM
Selectivity Kv1.2/Kv1.3 (Kv1.2; ratio of IC50 Kv1.2/Kv1.3): 3384
IC50 (Kv1.1; QPatch, CHO cells stably expressing human Kv1.1, read-out: Potency IC50, Kv1.1): > 3 µM
Selectivity Kv1.1/Kv1.3 (Kv1.1; ratio of IC50 Kv1.1/Kv1.3): >9100
Mean ear thickness of KLH-induced ear ([2]; 10 nmol/kg s.c., challenge day 11, 24 hrs post-challenge, vehicle 0.848, p=0.0495): 0.807±0.025 mm
Mean ear thickness of KLH-induced ear ([2]; 10 nmol/kg s.c., challenge day 11, 48 hrs post-challenge, vehicle 0.819, p=0.0009): 0.761±0.025 mm
Mean ear thickness of KLH-induced ear ([2]; 100 nmol/kg s.c., challenge day 11, 24 hrs post-challenge, vehicle 0.848, p=0.0015): 0.777±0.019 mm
Mean ear thickness of KLH-induced ear ([2]; 100 nmol/kg s.c., challenge day 11, 48 hrs post-challenge, vehicle 0.819, p<0.0001): 0.713±0.034 mm
Mean ear thickness of KLH-induced ear ([2]; 300 nmol/kg s.c., challenge day 11, 24 hrs post-challenge, vehicle 0.848, p=0.0005): 0.772±0.009 mm
Mean ear thickness of KLH-induced ear ([2]; 300 nmol/kg s.c., challenge day 11, 48 hrs post-challenge, vehicle 0.819, p<0.0001): 0.684±0.016 mm
Mean ear thickness of KLH-induced ear ([2]; 700 nmol/kg s.c., challenge day 11, 24 hrs post-challenge, vehicle 0.848, p=0.0007): 0.771±0.018 mm
Mean ear thickness of KLH-induced ear ([2]; 700 nmol/kg s.c., challenge day 11, 48 hrs post-challenge, vehicle 0.819, p<0.0001): 0.671±0.011 mm
Mean ear thickness of KLH-induced ear ([2]; 24 hrs post-challenge, day 2 post-treatment, 100 nmol/kg SC): 0.704 mm
Mean ear thickness of KLH-induced ear ([2]; 24 hrs post-challenge, day 6 post-treatment, 10 nmol/kg SC): 0.807 mm
Mean ear thickness of KLH-induced ear ([2]; 24 hrs post-challenge, day 6 post-treatment, 100 nmol/kg SC): 0.777 mm
Mean ear thickness of KLH-induced ear ([2]; 24 hrs post-challenge, day 6 post-treatment, 300 nmol/kg SC): 0.772 mm
Mean ear thickness of KLH-induced ear ([2]; 24 hrs post-challenge, day 6 post-treatment, 700 nmol/kg SC): 0.771 mm
Mean ear thickness of KLH-induced ear ([2]; 48 hrs post-challenge, day 3 post-treatment, 100 nmol/kg SC): 0.652 mm
Mean ear thickness of KLH-induced ear ([2]; 48 hrs post-challenge, day 7 post-treatment, 10 nmol/kg SC): 0.761 mm
Mean ear thickness of KLH-induced ear ([2]; 48 hrs post-challenge, day 7 post-treatment, 100 nmol/kg SC): 0.713 mm
Mean ear thickness of KLH-induced ear ([2]; 48 hrs post-challenge, day 7 post-treatment, 300 nmol/kg SC): 0.684 mm
Mean ear thickness of KLH-induced ear ([2]; 48 hrs post-challenge, day 7 post-treatment, 700 nmol/kg SC): 0.671 mm
dose with which a maximal effect is obtained ([2]; KLH-induced DTH model, s.c.): 300 nmol/kg
Mean ear thickness of KLH-induced ear ([2]; s.c. day 6, dose not given, challenge day 7, 24 hrs post-challenge, vehicle 0.721, p=0.1216): 0.704±0.018 mm
Mean ear thickness of KLH-induced ear ([2]; s.c. day 6, dose not given, challenge day 7, 48 hrs post-challenge, vehicle 0.694, p=0.0008): 0.652±0.026 mm
